Source: the supplement of paper PMC8882468

What was measured:
Test in all cases: CTG-3D luminescence at 96 h relative to day-0 seeding control (ratio to day 0); higher = more growth / less cytotoxicity; PDxO 3D drug screen, 96 h, CTG-3D normalised to day-0 seeding control.
HCI-019 = test system: HCI-019 (organoid from a triple-negative breast cancer xenograft)
HCI-015 = test system: HCI-015 (organoid from a triple-negative breast cancer xenograft)
HCI-003.E2 = test system: HCI-003.E2 (organoid from an ER-positive breast cancer xenograft)
HCI-016 = test system: HCI-016 (organoid from a triple-negative breast cancer xenograft)
HCI-025 = test system: HCI-025 (organoid from a breast cancer xenograft)
HCI-005.E2 = test system: HCI-005.E2 (organoid from a breast cancer xenograft with a HER2-positive history)

Cc1cc(Nc2ncc(Cl)c(Nc3ccccc3S(=O)(=O)C(C)C)n2)c(OC(C)C)cc1C1CCNCC1 [ceritinib]
CTG-3D luminescence at 96 h
Conditions | 12.5 pM | 0.00025 µM | 0.005 µM | 0.1 µM | 1 µM | 10 µM | 100 µM | 625 fM
HCI-015, days in culture: 172 | 1.51 | 1.75 | 2.29 | 1.44 | 1.69 | 0.00586 | -0.0049 | 2.67
HCI-015, days in culture: 191 | 2.15 | 1.47 | 1.3 | 0.962 | 1.19 | 0.00448 | -0.00428 | 1.68
HCI-015, days in culture: 218 | 1.77 | 1.1 | 1.51 | 1.54 | 1.33 | 0.00686 | -0.00473 | 1.61
HCI-016, days in culture: 153 | 3.1 | 1.87 | 2.13 | 1.93 | 2.1 | 0.0113 | -0.00664 | 2.35
HCI-016, days in culture: 172 | 2.65 | 2.04 | 1.89 | 1.31 | 1.46 | 0.00857 | -0.00483 | 2.1
HCI-016, days in culture: 190 | 1.83 | 1.16 | 1.62 | 1.01 | 1.42 | 0.0979 | -0.0035 | 1.25
HCI-016, days in culture: 199 | 1.55 | 1.22 | 1.18 | 1.49 | 1.36 | 0.0047 | -0.00558 | 1.96
HCI-019, days in culture: 110 | 1.94 | 1.72 | 1.21 | 2.24 | 1.78 | 0.533 | -0.00638 | 2.49
HCI-019, days in culture: 131 | 2.4 | 3 | 2.64 | 3.8 | 2.36 | 0.0735 | -0.00829 | 3.86
HCI-019, days in culture: 152 | 2.83 | 2.4 | 1.79 | 1.51 | 1.37 | 0.01 | -0.00373 | 2.52
HCI-025, days in culture: 172 | 2.83 | 2.05 | 3.23 | 2.01 | 2.79 | 0.00721 | -0.00729 | 2.37
HCI-025, days in culture: 209 | 1.92 | 1.29 | 1.23 | 1.33 | 1.33 | 0.628 | -0.00366 | 1.68
HCI-025, days in culture: 218 | 2.02 | 1.87 | 1.86 | 1.8 | 1.36 | 1.48 | -0.00328 | 2.18

CTG-3D luminescence at 96 h
Conditions | 12.5 pM | 0.00025 µM | 0.005 µM | 0.1 µM | 1 µM | 10 µM | 100 µM | 625 fM
HCI-003.E2 | 2.16 | 2.04 | 1.82 | 2.06 | 2.05 | 0.388 | 0.0194 | 2.21
HCI-005.E2 | 1.54 | 1.76 | 1.79 | 1.7 | 1.44 | 0.347 | 0.0328 | 1.97

O=C(c1ccc(F)c(F)c1Nc1ccc(I)cc1F)N1CC(O)([C@@H]2CCCCN2)C1 [cobimetinib]
CTG-3D luminescence at 96 h
Conditions | 12.5 pM | 0.00025 µM | 0.005 µM | 0.1 µM | 1 µM | 10 µM | 100 µM | 625 fM
HCI-015, days in culture: 172 | 2.36 | 1.69 | 2.13 | 1.86 | 1.47 | 0.989 | 0.00672 | 2.48
HCI-015, days in culture: 191 | 1.86 | 1.15 | 1.57 | 1.17 | 1.01 | 0.894 | 0.0092 | 1.58
HCI-015, days in culture: 218 | 1.8 | 1.31 | 2.02 | 1.47 | 1.39 | 1.12 | 0.00858 | 1.64
HCI-016, days in culture: 153 | 3.32 | 1.63 | 2.26 | 1.1 | 1.56 | 1.38 | 0.0036 | 2.59
HCI-016, days in culture: 172 | 2.03 | 1.92 | 1.82 | 0.984 | 1.38 | 0.776 | 0.0013 | 1.63
HCI-016, days in culture: 190 | 1.55 | 1.08 | 1.45 | 1 | 0.91 | 0.962 | 0.00248 | 1.37
HCI-016, days in culture: 199 | 1.61 | 1.48 | 1.59 | 1.4 | 1.28 | 1.19 | 0.00262 | 1.78
HCI-019, days in culture: 110 | 1.61 | 2.17 | 1.42 | 1.74 | 0.92 | 0.565 | -0.00268 | 2.27
HCI-019, days in culture: 131 | 2.19 | 3.62 | 3.36 | 3.24 | 1.65 | 1.41 | -0.00394 | 3.82
HCI-019, days in culture: 152 | 3.36 | 3.14 | 2.66 | 1.88 | 1.11 | 0.848 | -1.56e-05 | 2.36
HCI-025, days in culture: 172 | 2.78 | 1.47 | 2.47 | 1.38 | 1.47 | 0.608 | -0.00396 | 2.94
HCI-025, days in culture: 209 | 1.76 | 1.67 | 2.01 | 1.27 | 1.15 | 1.26 | -0.00298 | 1.83
HCI-025, days in culture: 218 | 1.65 | 2.13 | 1.88 | 1.42 | 1.18 | 1.58 | -0.00137 | 1.71

CTG-3D luminescence at 96 h
Conditions | 12.5 pM | 0.00025 µM | 0.005 µM | 0.1 µM | 1 µM | 10 µM | 100 µM | 625 fM
HCI-003.E2 | 2.11 | 2.48 | 1.98 | 2.18 | 1.66 | 1.64 | 0.00926 | 1.93
HCI-005.E2 | 1.55 | 1.65 | 1.32 | 1.05 | 0.579 | 0.594 | 0.00269 | 1.63

C[C@H](NC(=O)CCC(F)(F)F)C(=O)N[C@@H]1C(=O)N(CCO)c2ncccc2-c2ccccc21 [crenigacestat]
CTG-3D luminescence at 96 h
Conditions | 12.5 pM | 0.00025 µM | 0.005 µM | 0.1 µM | 1 µM | 10 µM | 100 µM | 625 fM
HCI-015, days in culture: 172 | 2.18 | 1.26 | 1.37 | 0.655 | 0.872 | 1.02 | 1.03 | 2.13
HCI-015, days in culture: 191 | 1.82 | 1.27 | 0.914 | 0.48 | 0.414 | 0.657 | 0.695 | 1.32
HCI-015, days in culture: 218 | 1.66 | 1.29 | 0.952 | 0.72 | 0.7 | 0.533 | 0.827 | 1.61
HCI-016, days in culture: 153 | 2.83 | 1.83 | 2.67 | 1.66 | 2.21 | 2.33 | 2.19 | 2.92
HCI-016, days in culture: 172 | 2.16 | 1.87 | 1.71 | 1.66 | 1.58 | 1.14 | 1.76 | 1.73
HCI-016, days in culture: 190 | 1.45 | 1.02 | 1.29 | 0.549 | 0.838 | 1.52 | 1.74 | 0.976
HCI-016, days in culture: 199 | 1.48 | 1.3 | 1.49 | 1.38 | 1.78 | 1.57 | 1.73 | 1.76
HCI-019, days in culture: 110 | 1.5 | 1.45 | 1.75 | 2.18 | 1.25 | 2.5 | 2.44 | 2.28
HCI-019, days in culture: 131 | 2.19 | 3.56 | 1.97 | 2.86 | 2.87 | 2.81 | 3.41 | 3.74
HCI-019, days in culture: 152 | 3.73 | 3.39 | 2.6 | 2.64 | 1.96 | 2.12 | 2 | 2.48
HCI-025, days in culture: 172 | 2.73 | 1.6 | 2.79 | 2.23 | 3.2 | 1.64 | 1.98 | 2.44
HCI-025, days in culture: 209 | 2.02 | 2.25 | 2.26 | 1.61 | 1.76 | 1.57 | 1.45 | 1.58
HCI-025, days in culture: 218 | 1.89 | 2.02 | 1.67 | 1.69 | 1.75 | 2.32 | 1.58 | 2.02

CTG-3D luminescence at 96 h
Conditions | 12.5 pM | 0.00025 µM | 0.005 µM | 0.1 µM | 1 µM | 10 µM | 100 µM | 625 fM
HCI-003.E2 | 2.2 | 2.4 | 2.11 | 2.4 | 2.16 | 2.09 | 1.64 | 2.07
HCI-005.E2 | 1.59 | 1.76 | 1.84 | 1.57 | 1.33 | 1.42 | 1.19 | 1.47
